From patent US6806359B1, “Hormone receptor compositions and methods” (The Salk Institute for Biological Studies, priority 1986, dated 2004)
“Also recorded” adds a separate entry of the source.

Legend:
rTR alpha = biological target: T1, rTR alpha (Rattus norvegicus, UniProt P63059); experiment: ^125I-T3 binding to in vitro translated rTR alpha (Scatchard and competition); details: excess competitor
T1 construct: made in house; host or cells: rabbit reticulocyte lysate (SP6 transcripts of rbeA12B)
T1 sequence (P63059 1-410 isoform P63059-2): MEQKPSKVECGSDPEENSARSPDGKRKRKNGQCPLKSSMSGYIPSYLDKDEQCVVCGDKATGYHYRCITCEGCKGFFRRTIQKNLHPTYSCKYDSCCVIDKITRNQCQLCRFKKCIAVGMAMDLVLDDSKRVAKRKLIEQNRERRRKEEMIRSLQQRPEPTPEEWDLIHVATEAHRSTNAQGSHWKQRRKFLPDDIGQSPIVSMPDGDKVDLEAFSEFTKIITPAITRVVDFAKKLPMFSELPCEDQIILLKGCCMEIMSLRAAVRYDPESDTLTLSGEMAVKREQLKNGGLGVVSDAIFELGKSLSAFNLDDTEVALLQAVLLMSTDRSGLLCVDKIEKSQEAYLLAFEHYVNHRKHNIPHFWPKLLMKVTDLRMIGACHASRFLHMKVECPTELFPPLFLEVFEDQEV
Source text: In vitro translation and thyroid hormone binding of rTR alpha FIG. 69 rTR alpha was transcribed in vitro and translated in a rabbit reticulocyte lysate. […] Lane 1, no added RNA; lane 2, rbeA12, which contains the entire 5′ untranslated region; lane 3, rbeA12B, which contains only 97 bp of 5′ untranslated sequence. […] Samples from rbeA12B programmed lysates were mixed with increasing concentrations of unlabeled thyroid hormone or analogs to compete with labeled hormone. […] In vitro transcription and translation and hormone binding were performed as described (22, 23).
23. For in vitro transcription, the entire EcoRI insert of rbeA12 was cloned into pGEM1 (Promega Biotec). […] For thyroid hormone binding, transcriptions were performed with SP6 polymerase and 5 to 10 micrograms of rbeA12B linearized with SstI. […] Thyroid hormone binding for both the Scatchard and competition analyses were determined in the same manner, except that unlabeled protein was used for the Scatchard analysis. […] Specific hormone binding was determined by adding a 1000-fold excess of unlabeled hormone and assayed by counting radioactivity eluting in the excluded volume from a Sephadex G-25 fine (Pharmacia) 0.9-by 4.0-cm. column.

hMR [1] = biological target: T2, hMR (Homo sapiens, UniProt P08235); experiment: Transcriptional activation of MMTV LTR (GMCAT) by hMR in transfected CV1 cells; type: cell-based; set-up: expressed in transfected cells; details: pRShMR + GMCAT, charcoal-treated serum, 10 nM steroid
T2 sequence (P08235 1-984): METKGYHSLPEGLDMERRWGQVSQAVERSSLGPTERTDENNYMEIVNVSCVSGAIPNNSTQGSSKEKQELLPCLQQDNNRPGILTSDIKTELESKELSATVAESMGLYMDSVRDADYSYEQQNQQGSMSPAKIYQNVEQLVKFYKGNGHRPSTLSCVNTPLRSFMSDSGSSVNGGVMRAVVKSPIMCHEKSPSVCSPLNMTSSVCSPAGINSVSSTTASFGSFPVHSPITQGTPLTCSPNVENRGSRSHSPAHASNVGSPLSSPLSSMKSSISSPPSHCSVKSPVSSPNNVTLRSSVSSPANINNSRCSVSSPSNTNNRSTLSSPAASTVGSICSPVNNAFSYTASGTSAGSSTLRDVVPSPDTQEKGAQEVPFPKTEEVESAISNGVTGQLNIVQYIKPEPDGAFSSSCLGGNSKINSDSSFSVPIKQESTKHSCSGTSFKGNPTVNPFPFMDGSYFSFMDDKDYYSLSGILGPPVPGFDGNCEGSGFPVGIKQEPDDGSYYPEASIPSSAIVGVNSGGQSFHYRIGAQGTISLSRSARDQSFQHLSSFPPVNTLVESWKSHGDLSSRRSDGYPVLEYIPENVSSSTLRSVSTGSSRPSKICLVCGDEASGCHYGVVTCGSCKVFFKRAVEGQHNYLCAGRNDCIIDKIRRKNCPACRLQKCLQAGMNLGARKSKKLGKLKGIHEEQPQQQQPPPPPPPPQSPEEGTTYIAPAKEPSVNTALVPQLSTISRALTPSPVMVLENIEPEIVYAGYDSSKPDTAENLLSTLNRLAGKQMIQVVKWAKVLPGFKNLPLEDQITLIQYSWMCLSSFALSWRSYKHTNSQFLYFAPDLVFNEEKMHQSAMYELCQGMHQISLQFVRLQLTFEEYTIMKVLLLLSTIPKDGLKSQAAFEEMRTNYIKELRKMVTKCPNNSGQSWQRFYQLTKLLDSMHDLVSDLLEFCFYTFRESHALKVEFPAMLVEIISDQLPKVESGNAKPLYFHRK
Source text: Steroid hormone action is characterized by hormone-dependent modulation of target gene transcription. The assay for transcriptional regulation by transfected hGR in CVI cells (see Experimental Section II) was adapted to hMR (FIGS. 42 and 44). The expression plasmid used for steroid-binding assays, pRShMR, was cotransfected with a reporter plasmid called GMCAT, which contains the MMTV LTR linked to the bacterial gene for chloramphenicol acetyltransferase (CAT). Thus CAT activity provides an enzymatic assay for the transcriptional activity of the MMTV promoter. The MMTV promoter contains several glucorticoid response elements (GRE's), enhancer-like DNA sequences that confer glucocorticoid responsiveness via interaction with the GR (21).
FIG. 42 Structure of GMCAT. This plasmid was cotransfected with the steroid receptors as a reporter gene for hormone-dependent transcriptional activation (see Experimental Section II). […] Transfected cells were maintained in DMEM with 5 percent fetal calf serum. Serum was treated with charcoal to eliminate free steroids in subsequent experiments so that the effects of exogenous steroids could be determined. […] (D) AC, 3-acetylchloramphenicol; C, chloramphenicol. Two days after transfection by calcium phosphate coprecipitation (43), extracts were prepared for CAT assay (44). The assays were incubated for 6 hours with 50 micrograms of protein extract.

MR = details: read-out: reported KD values for aldosterone binding to MR; cited from earlier work
GR [2] = biological target: T3, GR (Homo sapiens, UniProt P04150); experiment: Transcriptional activation of MMTV LTR (GMCAT) by hGR in transfected CV1 cells; type: cell-based; set-up: The expression vector linking the RSV LTR to full length hGR cDNA (pRShGR alpha) was designed to obtain high levels of expression; expressed in transfected cells; host or cells: CV1 monkey kidney cells, cotransfected with GMCAT; details: pRShGR alpha + GMCAT, 10 nM steroid
T3 sequence (P04150 1-777): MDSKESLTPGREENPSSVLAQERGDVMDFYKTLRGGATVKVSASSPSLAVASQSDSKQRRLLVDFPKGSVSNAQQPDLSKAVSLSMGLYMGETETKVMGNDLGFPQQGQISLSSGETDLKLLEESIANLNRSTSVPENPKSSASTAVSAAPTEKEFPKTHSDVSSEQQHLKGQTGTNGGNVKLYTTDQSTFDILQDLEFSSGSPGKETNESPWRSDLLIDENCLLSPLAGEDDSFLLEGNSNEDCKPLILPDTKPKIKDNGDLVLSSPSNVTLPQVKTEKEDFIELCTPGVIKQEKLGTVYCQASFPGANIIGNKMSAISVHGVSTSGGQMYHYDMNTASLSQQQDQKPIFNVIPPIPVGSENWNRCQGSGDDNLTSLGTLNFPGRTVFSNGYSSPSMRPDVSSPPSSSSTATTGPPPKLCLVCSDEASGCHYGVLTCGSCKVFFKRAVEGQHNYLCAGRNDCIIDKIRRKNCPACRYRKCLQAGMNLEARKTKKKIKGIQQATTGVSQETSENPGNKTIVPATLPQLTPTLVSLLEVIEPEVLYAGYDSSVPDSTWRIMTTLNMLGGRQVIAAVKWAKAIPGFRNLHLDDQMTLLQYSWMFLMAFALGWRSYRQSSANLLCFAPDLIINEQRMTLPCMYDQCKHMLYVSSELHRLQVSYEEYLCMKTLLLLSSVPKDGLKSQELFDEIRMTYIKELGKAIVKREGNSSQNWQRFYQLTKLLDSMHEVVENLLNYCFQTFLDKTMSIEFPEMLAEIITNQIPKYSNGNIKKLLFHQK

GR [3] = biological target: T3, GR; details: read-out: KD for binding to GR; cited from earlier work
hMR [4] = biological target: T2, hMR; experiment: [^3H]aldosterone binding and steroid competition in extracts of pRShMR-transfected COS cells; set-up: expressed in transfected cells; host or cells: COS cells transfected with pRShMR (DEAE-dextran); details: 1-, 10-, or 100-fold molar excess of unlabeled steroid
Method: Ligand specificity of the hMR protein was determined by preparing cytosol extracts from COS cells transfected with pRShMR. Two days after transfection, cells were harvested, and hormone binding was measured by a dextran-treated charcoal assay. […] This provided a measure of the relative affinity of each of these steroids for hMR.
Steroid-binding properties of expressed hMR. FIG. 38 Structure of pRShMR, the hMR expression plasmid (41). […] Each point was assayed in triplicate with 100 micrograms of extract protein in a 200-microliter incubation at 0° C. for 2.5 hours. […] The results of two independent trials representative of these competition experiments are shown. Cold competitor was present in 1-, 10-, or 100-fold molar excess. […] Subconfluent COS cells were transfected by the DEAE-dextran method (42) with 10 micrograms of pRShMR per dish. Cells were maintained for 2 days in DMEM (Dulbecco's modification of Eagle's minimum essential medium) with 5 percent charcoal-treated fetal calf serum, then harvested in […] tris-HCl. (pH 7.8), 10 nM NaCl, 1 mM EDTA, 10 mM Na2MoO4, 5 mM dithiothreitol, antipain (5 microgram/ml), leupeptin (5 microgram/ml), and 500 microM phenylmethylsulfonyl fluoride. After centrifugation at 15,000×g for 10 minutes, extracts were adjusted to 100 mM NaCl and 5 percent glycerol before binding. […] After centrifugation at 15,000×g for 2 minutes at 40C, tritium in supernatant was quantified by liquid scintillation spectrophotometry.

[5] = biological target: T4, alpha-hGR (human glucocorticoid receptor) translated in vitro (Homo sapiens, UniProt P04150); experiment: Steroid binding (^3H-triamcinolone acetonide) of hGR translated in vitro in reticulocyte lysate, competition by unlabeled steroids; details: 100-fold excess unlabeled competitor (15 microM), 2 h at 0° C.
T4 construct: We describe the use of the SP6 transcription vector system to generate analytical amounts of full-length protein; made in house; host or cells: rabbit reticulocyte lysate (cell-free translation of SP6 transcripts)
T4 sequence (P04150 1-777): T3 sequence (P04150 1-777)
Method: Steroid-binding of alpha-hGR translated in vitro. […] Bars represent bound ^3H-triamcinolone acetonide (TA) determined with a 100-fold excess of various steroid competitors; 100% competition was determined using unlabeled TA as competitor. The values represent the mean of triplicate determinations, with error bars showing […].
Binding assays were performed in 100 microliters containing 10 mM Tris-HCl pH 7.4, 100 mM NaCl, 1 mM EDTA, 10 mM sodium molybdate, 10 dithiothreitol, […] ^3H-TA (20 Ci mmol^−1, Amersham) and 10 microliters translation mixture or 100 microgram fresh 1M-9 cytosol. Unlabeled steroid competitor (15 microM) was added as indicated. After 2 h at 0° C., samples were extracted twice for 5 min. each with 5 microliter of 50% dextran-coated charcoal to remove unbound steroid, and counted.

Row | competition for T3 binding to rTR alpha by excess compound (rTR alpha) | relative affinity for hMR by competition with 5 nM [^3H]aldosterone (in words) (hMR [4]; listed as hydrocortisone) | competition with ^3H-TA binding to in vitro-synthesized alpha-hGR by excess unlabeled steroid [5] | Compound | hMR-mediated CAT activity response (in words) (hMR [1]) | Kd (MR) | hGR-mediated CAT activity response (in words) (GR [2]) | Kd (GR [3]) | relative affinity for hMR by competition with 5 nM [^3H]aldosterone (in words) (hMR [4])
1 | no competition |  |  | C[C@]12CCC(=O)C=C1CC[C@@H]1[C@@H]2[C@@H](O)C[C@]2(C=O)[C@@H](C(=O)CO)CC[C@@H]12 [aldosterone] | became responsive; also recorded: approximately equivalent | 0.5 to 3 nM | did not respond; also recorded: insensitive | 25 to 65 nM | 
2 |  | very similar affinities | could be competed with | C[C@]12CCC(=O)C=C1CC[C@@H]1[C@@H]2[C@@H](O)C[C@@]2(C)[C@H]1CC[C@]2(O)C(=O)CO [cortisol] | also observed |  |  |  | compete as effectively as aldosterone itself
